Assay type in all cases: biochemical
One assay has as its target δ-opioid receptor (Homo sapiens (Human), UniProt P41143). Kind of assay: δ-opioid receptor [35S]GTPγS functional assay (Table 4). As for the experimental part: δ-Opioid Receptor Functional Assay Procedures: Functional [^35S]GTPγS binding assays were conducted as follows. δ opioid receptor membrane solution was prepared by sequentially adding final concentrations of 0.026 μg/μl δ membrane protein (Perkin Elmer, Shelton, Conn.), 10 μg/mL saponin, 3 μM GDP and 0.20 nM [^35S]GTPγS to binding buffer (100 mM NaCl, 10 mM MgCl2, 20 mM HEPES, pH 7.4) on ice. The prepared membrane solution (190 μl/well) was transferred to 96-shallow well polypropylene plates containing 10 μl of 20× concentrated stock solutions of agonist prepared in DMSO. Plates were incubated for 30 min at a temperature of about 25° C. with shaking Reactions were terminated by rapid filtration onto 96-well Unifilter GF/B filter plates (Perkin Elmer, Shelton, Conn.) using a 96-well tissue harvester (Packard) and followed by three filtration washes with 200 μl ice-cold binding buffer (10 mM NaH2PO4, 10 mM Na2HPO4, pH 7.4). Filter plates were subsequently dried at 50° C. for 1-2 hours. Fifty μl/well scintillation cocktail (Perkin Elmer, Shelton, Conn.) was added and plates were counted in a Packard Top-count for 1 min/well.
δ GTP Emax (%) is the maximal effect elicited by a compound relative to the effect elicited by met-enkephalin.
In general terms: GTPγS is a poorly hydrolysed GTP analogue; its binding reports G protein activation.

The target in another assay is κ-opioid receptor (Homo sapiens (Human), UniProt P41145). Kind of assay: κ-opioid receptor [35S]GTPγS functional assay, HEK-293 or CHO cells (Table 4).
The target of the next assay is μ-opioid receptor (Homo sapiens (Human), UniProt P35372). The experiment in a line: μ-opioid receptor [35S]GTPγS functional assay, HEK-293 or CHO cells (Table 4). The gist of the method:
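Membranes from HEK-293, CHO or U-2 OS cells (or commercial) expressing recombinant μ receptor; 0.20 nM [35S]GTPγS, 3 mM GDP, saponin, in 100 mM NaCl/10 mM MgCl2/20 mM HEPES pH 7.4.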

A value given as a limit tells only on which side of the number the result lay.

The values below come from patent US9656962B2, “Ring-contracted morphinans and the use thereof” (Purdue Pharma L.P., priority 2013, dated 2017).

Sequence of δ-opioid receptor (P41143 whole entry, looked up): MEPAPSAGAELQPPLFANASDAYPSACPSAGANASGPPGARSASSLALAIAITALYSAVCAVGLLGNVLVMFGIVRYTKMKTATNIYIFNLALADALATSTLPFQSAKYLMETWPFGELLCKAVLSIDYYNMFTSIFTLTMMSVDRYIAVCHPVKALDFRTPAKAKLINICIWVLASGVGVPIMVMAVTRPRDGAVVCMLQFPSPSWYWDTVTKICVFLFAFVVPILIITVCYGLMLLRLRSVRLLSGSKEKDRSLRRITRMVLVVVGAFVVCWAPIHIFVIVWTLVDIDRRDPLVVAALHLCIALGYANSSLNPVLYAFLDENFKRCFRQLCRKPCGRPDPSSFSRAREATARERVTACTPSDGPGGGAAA

A word on the Emax: it is the greatest response seen or fitted, relative to the assay's reference. As a reminder, the EC50 is the concentration that produces a half-maximal response. High values mean weaker potency, low ones greater potency. As for `NC(=O)[C@@H]1C[C@]23CCN(CC4CC4)[C@H](Cc4ccc(O)cc42)[C@]3(O)C1` [Compound 31, (2R,3aS,4R,9bS)-12-(cyclopropylmethyl)-3a,8-dihydroxy-1,2,3,3a,4,5-hexahydro-4,9b-(epiminoethano)cyclopenta-[a]naphthalene-2-carboxamide], the Emax is 32 ± 3.49% on δ-opioid receptor (relative to met-enkephalin), 35.3 ± 2.19% at κ-opioid receptor (relative to U69,593) and 1% at μ-opioid receptor (relative to DAMGO). In addition, the EC50 was 0.0755 ± 0.0136 µM on δ-opioid receptor (δ GTP); 0.00695 ± 0.00097 µM at κ-opioid receptor (κ GTP); more than 20 µM at μ-opioid receptor (μ GTP, bound given in μM).
